In data set [1] the test system is male Sprague Dawley rats. Description: gastric emptying, phenol red method. Format: in vivo. Particulars: 10 mg/kg orally, 20 minutes after phenol red meal; control 64.94%. The protocol: (§1) A composition of asafoetida and milk thistle extract in a ratio of 1:3 was evaluated for effects on gastric emptying and gastrointestinal transit is Sprague-Dawley rats. Twenty-four male Sprague Dawley (SD) rats (190-200 g) were divided into four groups, each group consisted of six animals with less than 20% mean body weight range. Group I served as control group, Group II referenced standard Domiperidone, Groups III and IV were administered the composition. During experimentation, animals were housed under standard husbandry conditions at a temperature of 22±3° C., relative humidity (30-70%) and a light:dark cycle of 12:12 h. […]
(§2) All treatments were given for seven days daily in the morning except reference standard and on day 8th after fasted for 16 h all groups were administered with respective doses of the composition or standard drug Domperidone. Gastric emptying was measured by the use of phenol red method as described previously (Kawachi et al. 2011). […] The amount of phenol red in the supernatant was determined based on the absorbance at 570 nm measured using a microplate reader (Multiskan EX, Thermo Scientific). […] Gastric emptying was calculated using the formula: (1−amount of phenol red in the test sample/amount of phenol red in the standard sample)×100.
The percentage gastric emptying was assessed after 20 minutes of phenol red meal administration in rats. […]

Data set [2] relates to male Sprague Dawley rats. The experiment in a line: gastrointestinal transit (GIT). Format: in vivo. Particulars: single dose (10 mg/kg), p<0.001. On the procedure: as §1
as §2, with “sample)×100. […]” for “sample)×100.”
The composition in beadlet form was evaluated for efficacy in alleviating the delayed gastric emptying using an animal model. […]

Data set [3] is described as follows: body weight in the gastric emptying study. Format: in vivo, Sprague Dawley rats. As to conditions: 10 mg/kg orally. On the procedure: A composition of asafoetida and milk thistle extract in a ratio of 1:3 was evaluated for effects on gastric emptying and gastrointestinal transit is Sprague-Dawley rats. Twenty-four male Sprague Dawley (SD) rats (190-200 g) were divided into four groups, each group consisted of six animals with less than 20% mean body weight range. Group I served as control group, Group II referenced standard Domiperidone, Groups III and IV were administered the composition. During experimentation, animals were housed under standard husbandry conditions at a temperature of 22±3° C., relative humidity (30-70%) and a light:dark cycle of 12:12 h. Animals were allowed free access to pellet feed and UV purified water.
Body weights of each animal group were measured at initiation of experiment, on day 7, and fasting on day 8.

Molecule `O=c1[nH]c2ccccc2n1CCCN1CCC(n2c(=O)[nH]c3cc(Cl)ccc32)CC1` [Domperidone] gave a percentage gastric emptying in data set [1] of 78.86%. Besides, the “GIT compared to control” value in data set [2] is on record as “significant increase”. Besides, the Body weight in data set [3] (Day 7) is 228.69 ± 12.07 g; in data set [3] (Fasting (Day 8)), 211.9 ± 11.72 g; in data set [3] (Initial) it was 209.68 ± 9.71 g.

Source of the values: patent publication US11338006B2, “Composition and method for promoting digestive health” (Vidy Herbs, Inc., priority 2018, dated 2022).
